Like-named read-outs stand apart in the source and are kept apart here.
Tested on: RS4;11 cells
Assay: RS4;11 cell viability assay (CellTiter Glo);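 also: acute lymphoblastic leukemia line RS4,11, EC50 derived from percentage of viable cells after treatment relative to untreated controls, cell killing taken as a measure of Bcl-2 inhibition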
Type: cell-based, human
Settings: read-out: RS4
[1] = Homo sapiens, RS4-11, 48 h, 50,000 cells per well, 10% human serum, 48 hours, 11 EC50 Values

Method: The acute lymphoblastic leukemia (ALL) cell line RS4;11 was used as the primary human cell line to assess the cellular activity of Bcl-2 selective agents in vitro and their efficacy in vivo.
Cell cytotoxicity EC50 values were assessed using CellTiter Glo (Promega) according to the manufacturer's recommendations. The EC50 values were determined as a percentage of viable cells following treatment compared to the untreated control cells.

EC50 [1] | SMILES | further results
13.1 nM | CN1CCC(F)(COc2ccc(S(=O)(=O)NC(=O)c3ccc(N4CCN(CC5=C(c6ccc(Cl)cc6)CC(C)(C)CC5)CC4)cc3Oc3cnc4[nH]ccc4c3)cc2Cl)CC1 [Example 283, N-({3-chloro-4-[(4-fluoro-1-methylpiperidin-4-yl)methoxy]phenyl}sulfonyl)-4-(4-{[2-(4-chlorophenyl)-4,4-dimethylcyclohex-1-en-1-yl]methyl}piperazin-1-yl)-2-(1H-pyrrolo[2,3-b]pyridin-5-yloxy)benzamide] | –
– | CC1(C)CCC(CN2CCN(c3ccc(C(=O)NS(=O)(=O)c4cnc(OC[C@]5(F)CC[C@@](C)(O)CC5)c(Cl)c4)c(Oc4cnc5[nH]ccc5c4)c3)CC2)=C(c2ccc(Cl)cc2)C1 [Example 355, N-({5-chloro-6-[(trans-1-fluoro-4-hydroxy-4-methylcyclohexyl)methoxy]pyridin-3-yl}sulfonyl)-4-(4-{[2-(4-chlorophenyl)-4,4-dimethylcyclohex-1-en-1-yl]methyl}piperazin-1-yl)-2-(1H-pyrrolo[2,3-b]pyridin-5-yloxy)benzamide] | EC50 (50,000 cells per well, 10% human serum, 48 hours, 11 EC50 Values): 18.8 nM
12.3 nM | O=C(NS(=O)(=O)c1ccc(OCC2(F)CCOCC2)c(Cl)c1)c1ccc(N2CCN(CC3=C(c4ccc(Cl)cc4)CCC4(CCN(C5COC5)CC4)C3)CC2)cc1Oc1cnc2[nH]ccc2c1 [Example 325, N-({3-chloro-4-[(4-fluorotetrahydro-2H-pyran-4-yl)methoxy]phenyl}sulfonyl)-4-(4-{[9-(4-chlorophenyl)-3-(oxetan-3-yl)-3-azaspiro[5.5]undec-8-en-8-yl]methyl}piperazin-1-yl)-2-(1H-pyrrolo[2,3-b]pyridin-5-yloxy)benzamide] | –
121 nM | CC1(C)CCC(CN2CCN(c3ccc(C(=O)NS(=O)(=O)c4cnc(OCC5(F)CCOCC5)c(C(F)(F)F)c4)c(Oc4cnc5[nH]ccc5c4)c3)CC2)=C(c2ccc(Cl)cc2)C1 [Example 208, 4-(4-{[2-(4-chlorophenyl)-4,4-dimethylcyclohex-1-en-1-yl]methyl}piperazin-1-yl)-N-{[6-[(4-fluorotetrahydro-2H-pyran-4-yl)methoxy]-5-(trifluoromethyl)pyridin-3-yl]sulfonyl}-2-(1H-pyrrolo[2,3-b]pyridin-5-yloxy)benzamide] | –
9.25 nM | O=C(NS(=O)(=O)c1cnc(OCC2(F)CCN(C3COC3)CC2)c(Cl)c1)c1ccc(N2CCN(CC3=C(c4ccc(Cl)cc4)CC4(CC3)CC4)CC2)cc1Oc1cnc2[nH]ccc2c1 [Example 345, N-[(5-chloro-6-{[4-fluoro-1-(oxetan-3-yl)piperidin-4-yl]methoxy}pyridin-3-yl)sulfonyl]-4-(4-{[5-(4-chlorophenyl)spiro[2.5]oct-5-en-6-yl]methyl}piperazin-1-yl)-2-(1H-pyrrolo[2,3-b]pyridin-5-yloxy)benzamide] | –
840 nM | O=C(NS(=O)(=O)c1cnc(OCC2(F)CCOCC2)c(Cl)c1)c1ccc(N2CCC(F)(Cc3ccccc3-c3ccc(Cl)cc3)CC2)cc1Oc1cnc2[nH]ccc2c1 [Example 272, 4-{4-[(4′-chlorobiphenyl-2-yl)methyl]-4-fluoropiperidin-1-yl}-N-({5-chloro-6-[(4-fluorotetrahydro-2H-pyran-4-yl)methoxy]pyridin-3-yl}sulfonyl)-2-(1H-pyrrolo[2,3-b]pyridin-5-yloxy)benzamide] | –
8.38 nM | CO[C@H]1CC[C@H](COc2ccc(S(=O)(=O)NC(=O)c3ccc(N4CCN(CC5=C(c6ccc(Cl)cc6)CC(C)(C)CC5)CC4)cc3Oc3cnc4[nH]ccc4c3)cc2[N+](=O)[O-])CC1 [Example 125, Trans-4-(4-{[2-(4-chlorophenyl)-4,4-dimethylcyclohex-1-en-1-yl]methyl}piperazin-1-yl)-N-({4-[(4-methoxycyclohexyl)methoxy]-3-nitrophenyl}sulfonyl)-2-(1H-pyrrolo[2,3-b]pyridin-5-yloxy)benzamide] | –
26.4 nM | CC1(C)CCC(CN2CCN(c3ccc(C(=O)NS(=O)(=O)c4ccc(OCC5(F)CCC(N(CCC#N)C6CC6)CC5)c([N+](=O)[O-])c4)c(Oc4cnc5[nH]ccc5c4)c3)CC2)=C(c2ccc(Cl)cc2)C1 (centres unmarked) [Example 363, 4-(4-{[2-(4-chlorophenyl)-4,4-dimethylcyclohex-1-en-1-yl]methyl}piperazin-1-yl)-N-{[4-({4-[(2-cyanoethyl)(cyclopropyl)amino]-1-fluorocyclohexyl}methoxy)-3-nitrophenyl]sulfonyl}-2-(1H-pyrrolo[2,3-b]pyridin-5-yloxy)benzamide] | –
11.6 nM | CCN(C)C(=O)N1CCOC(CNc2ccc(S(=O)(=O)NC(=O)c3ccc(N4CCN(CC5=C(c6ccc(Cl)cc6)CC(C)(C)CC5)CC4)cc3Oc3cnc4[nH]ccc4c3)cc2[N+](=O)[O-])C1 (centres unmarked) [Example 318, 2-{[(4-{[4-(4-{[2-(4-chlorophenyl)-4,4-dimethylcyclohex-1-en-1-yl]methyl}piperazin-1-yl)-2-(1H-pyrrolo[2,3-b]pyridin-5-yloxy)benzoyl]sulfamoyl}-2-nitrophenyl)amino]methyl}-N-ethyl-N-methylmorpholine-4-carboxamide] | –
270 nM | CC1(C)CCC(CN2CCN(c3ccc(C(=O)NS(=O)(=O)c4cnc(NCC5CN(C6CC6)CCO5)c(Cl)c4)c(Oc4cnc5[nH]ccc5c4)c3)CC2)=C(c2ccc(Cl)cc2)C1 (centres unmarked) [Example 335, N-[(5-chloro-6-{[(4-cyclopropylmorpholin-2-yl)methyl]amino}pyridin-3-yl)sulfonyl]-4-(4-{[2-(4-chlorophenyl)-4,4-dimethylcyclohex-1-en-1-yl]methyl}piperazin-1-yl)-2-(1H-pyrrolo[2,3-b]pyridin-5-yloxy)benzamide] | –
64.9 nM | O=C(NS(=O)(=O)c1ccc(NCC2CCOCC2)c([N+](=O)[O-])c1)c1ccc(N2CCN(CC3=C(c4ccc(Cl)cc4)CCC4(CCCC4)C3)CC2)cc1Oc1cnc2[nH]ccc2c1 [Example 79, 4-(4-{[8-(4-chlorophenyl)spiro[4.5]dec-7-en-7-yl]methyl}piperazin-1-yl)-N-({3-nitro-4-[(tetrahydro-2H-pyran-4-ylmethyl)amino]phenyl}sulfonyl)-2-(1H-pyrrolo[2,3-b]pyridin-5-yloxy)benzamide] | –
523 nM | CC1(C)CCC(CN2CCN(c3ccc(C(=O)NS(=O)(=O)c4cnc(N[C@@H]5CCN(C(CF)CF)C5)c(Cl)c4)c(Oc4cnc5[nH]ccc5c4)c3)CC2)=C(c2ccc(Cl)cc2)C1 [Example 231, N-[(5-chloro-6-{[(3R)-1-(1,3-difluoropropan-2-yl)pyrrolidin-3-yl]amino}pyridin-3-yl)sulfonyl]-4-(4-{[2-(4-chlorophenyl)-4,4-dimethylcyclohex-1-en-1-yl]methyl}piperazin-1-yl)-2-(1H-pyrrolo[2,3-b]pyridin-5-yloxy)benzamide] | –
49.5 nM | CN1CCN(Nc2ccc(S(=O)(=O)NC(=O)c3ccc(N4CCN(CC5=C(c6ccc(Cl)cc6)CC(C)(C)OC5)CC4)cc3Oc3cnc4[nH]ccc4c3)cc2[N+](=O)[O-])CC1 [Example 67, 4-(4-{[4-(4-chlorophenyl)-6,6-dimethyl-5,6-dihydro-2H-pyran-3-yl]methyl}piperazin-1-yl)-N-({4-[(4-methylpiperazin-1-yl)amino]-3-nitrophenyl}sulfonyl)-2-(1H-pyrrolo[2,3-b]pyridin-5-yloxy)benzamide] | –
426 nM | CC1(C)CCC(CN2CCN(c3ccc(C(=O)NS(=O)(=O)c4cnc(OCCN5CCOCC5)c(C#N)c4)c(Oc4cnc5[nH]ccc5c4)c3)CC2)=C(c2ccc(Cl)cc2)C1 [Example 57, 4-(4-{[2-(4-chlorophenyl)-4,4-dimethylcyclohex-1-en-1-yl]methyl}piperazin-1-yl)-N-{[5-cyano-6-(2-morpholin-4-ylethoxy)pyridin-3-yl]sulfonyl}-2-(1H-pyrrolo[2,3-b]pyridin-5-yloxy)benzamide] | –
465 nM | CC1(C)CCC(CN2CCN(c3ccc(C(=O)NS(=O)(=O)c4ccc(N[C@H]5CC[C@H](N6CCOCC6)CC5)c([N+](=O)[O-])c4)c(Oc4ccc5[nH]ccc5c4)c3)CC2)=C(c2ccc(Cl)cc2)C1 [Example 19, Trans-4-(4-{[2-(4-chlorophenyl)-4,4-dimethylcyclohex-1-en-1-yl]methyl}piperazin-1-yl)-2-(1H-indol-5-yloxy)-N-({4-[(4-morpholin-4-ylcyclohexyl)amino]-3-nitrophenyl}sulfonyl)benzamide] | EC50 (Homo sapiens, RS4-11, Table 4, selected compounds in U.S. Pat. Application No. 12/631404, 11 EC50): 465 nM; EC50 (Homo sapiens, RS4-11, Table 5, direct comparison Z=N with corresponding analogs Z=C, 11 EC50): 465 nM
18.8 nM | O=C(NS(=O)(=O)c1ccc(NCC2CCOCC2)c([N+](=O)[O-])c1)c1ccc(N2CCN(CC3=C(c4ccc(Cl)cc4)CCC(F)(F)C3)CC2)cc1Oc1cnc2[nH]ccc2c1 [Example 321, 4-(4-{[2-(4-chlorophenyl)-5,5-difluorocyclohex-1-en-1-yl]methyl}piperazin-1-yl)-N-({3-nitro-4-[(tetrahydro-2H-pyran-4-ylmethyl)amino]phenyl}sulfonyl)-2-(1H-pyrrolo[2,3-b]pyridin-5-yloxy)benzamide] | –
53.1 nM | CC1(C)CC(c2ccc(Cl)cc2)=C(CN2CCN(c3ccc(C(=O)NS(=O)(=O)c4ccc(N[C@H]5CC[C@H](N6CCOCC6)CC5)c(S(=O)(=O)C(F)(F)F)c4)c(Oc4cnc5[nH]ccc5c4)c3)CC2)CO1 [Example 44, Trans-4-(4-{[4-(4-chlorophenyl)-6,6-dimethyl-5,6-dihydro-2H-pyran-3-yl]methyl}piperazin-1-yl)-N-({4-[(4-morpholin-4-ylcyclohexyl)amino]-3-[(trifluoromethyl)sulfonyl]phenyl}sulfonyl)-2-(1H-pyrrolo[2,3-b]pyridin-5-yloxy)benzamide] | –
> 5000 nM | COCCOCCS(=O)(=O)c1ccc(S(=O)(=O)NC(=O)c2ccc(N3CCN(CC4=C(c5ccc(Cl)cc5)CC(C)(C)CC4)CC3)cc2Oc2cnc3[nH]ccc3c2)cc1Cl [Example 58, N-[(3-chloro-4-{[2-(2-methoxyethoxy)ethyl]sulfonyl}phenyl)sulfonyl]-4-(4-{[2-(4-chlorophenyl)-4,4-dimethylcyclohex-1-en-1-yl]methyl}piperazin-1-yl)-2-(1H-pyrrolo[2,3-b]pyridin-5-yloxy)benzamide] | –

Reference: patent US20240043404A1 (AbbVie Inc., priority 2009, published 2024)
